These results are taken from patent US8227434B1, “Materials and methods for treating oncological disorders” (H. Lee Moffitt Cancer Center & Research Institute, Inc., priority 2003, dated 2012).

One assay relates to LR5 cell line. The following applies: LR5 cell line (Bellamy et al., 1991); cited from earlier work.
Assay [1] has as its system 8226 cells adhered to FN (8226/FN). In words: Alkaline comet assay of melphalan induced DNA crosslinks. The assay is classed as cell-based, human. Particulars: 2 h, FIG. 3B. As for the experimental part:
(§1) The alkaline comet assay was used to detect melphalan induced DNA crosslinks in 8226 myeloma cells. Cells cultured in suspension or adhered to FN were treated with varying doses of melphalan or vehicle control for two hours. Following drug treatment, single strand breaks were induced, by irradiating appropriate samples at 900 rads (MARK I model 68A irradiator). After drug treatment and irradiation, 5,000 cells were placed in a microcentrifuge tube containing 1 ml cold PBS, and the alkaline comet assay was performed as described by Kent et al. (1995). Fifty images were randomly captured per slide, and images by fluorescence microscopy were quantified using Optimus^R software as previously described (Hazlehurst et al., 2001; Kent et al., 1995).
(§2) The percent crosslinking was calculated as follows:
(§3) The data shown are the means of three independent experiments (n=50 images for each dose of each independent experiment). An analysis of variance (ANOVA) model was used to quantify the relationship between the response variable and the two independent variables.

The subject of assay [2] is 8226 cells in suspension (8226/SUS). Described as above. The assay is classed as cell-based, human. The following applies: 2 h. The method, then: as §1, §2, §3
Another assay has as its system 8226/LR5 cell line. The assay is described as above. It counts as cell-based, human. The following applies: 2 h, FIG. 3A. The method, then:
as §1, §2, §3

In assay [3] the test system is plasma cells from bone marrow aspirates of myeloma patients. In words: Melphalan-induced apoptosis of patient specimens (TUNEL, kappa/lambda staining). The assay is classed as cell-based, human. The following applies: 10 patient specimens. The text has this: To determine if CAM-DR occurred in patient specimens as well as myeloma cell lines, a double immunofluorescent assay was developed to simultaneously detect apoptotic plasma cells. After obtaining IRB approved consent, mononuclear cells from bone marrow aspirates obtained from patients with stage II and III myeloma were isolated by ficol-hypaque centrifugation and placed in αMEM media. One million cells/ml were adhered to FN or placed in suspension (0.1% poly-hema coated wells) for 2 hrs in serum free αMEM media. Following two hours of adhesion, fresh media with 15% FBS was added and cells were incubated for an additional 12-16 hrs. Following adhesion overnight, cells were treated with 200 uM melphalan for two hours and extracellular drug was removed and maintained in drug free media for an additional 24 hrs prior to fixation. Plasma cells were identified by either positive kappa or lambda staining (Vector laboratories, Burlingame, Calif.) and apoptotic plasma cells were identified by TUNEL analysis labeling using a commercially available kit (Intergen company, Purchase, N.Y., Cat. S7110). Fluorescence microscopy (Vysis, Downers Grove, Ill.) was used to count 500 total plasma cells per slide. Results following cell adhesion were compared to mononuclear cells exposed to melphalan in suspension culture.

In assay [4] the test system is 8226 cells. As to the kind of experiment: Alkaline comet assay, ICL formation and removal. It counts as cell-based, human. The following applies: within 17 hours after maximum ICL formation; 2 h exposure to 25 μM melphalan. As for the experimental part:
(§4) The alkaline comet assay was used to detect melphalan induced DNA crosslinks in 8226 and 8226/LR5 myeloma cells (Hazlehurst et al., 2003). To examine the dose response, 2×10^5 cells were treated with 25 μM. 50 μM and 100 μM melphalan or vehicle control for two hours, washed in PBS and cultured in drug-free medium for another three hours culture. After drug treatment, samples were irradiated at 900 rads (MARK I model 68A irradiator). The alkaline comet assay was performed according to the manufacturer's instructions (Travegene). Fifty images per slide were randomly captured by fluorescence microscopy and images were quantified using LAI comet analysis software (Loats Associates, Inc. Westminster, Md.). The percent crosslinking was calculated as follows: Relative crosslinking=(1-(Comet moment drug treated-comet moment control/comet moment 900 rads-comet moment control))×100. To examine the ICL formation and removal, 8226 and LR5 were incubated in 25 μM or 50 μM melphalan and vehicle control, respectively for 2 hours after which they were cultured in drug free medium for various times. Cells were collected at 0 h, 3 h, 8 h and 23 h after 2 h drug treatment to perform the comet assay. […] An analysis of variance (ANOVA) model was used to quantify the relationship between the response variable and the two independent variables.

The test system of the next assay is 8226/LR5 cells. As to the kind of experiment: Alkaline comet assay, ICL formation and removal. It counts as cell-based, human. The following applies: within 17 hours after maximum ICL formation; 2 h exposure to 50 μM melphalan. The method, then:
as §4

In assay [5] the test system is 8226 cells. In words: Cell-cycle analysis (BrDU/PI flow cytometry). The assay is classed as cell-based, human. The following applies: 48 h post 10 μM melphalan, 2 hour treatment. The method, then: (§5) To check the melphalan effect on cell cycle progressing, 8226 and LR5 were treated with 10 μM, 25 μM and 50 μM of melphalan and collected at 24 h and 48 h. Cells were then fixed with 70% EtOH at 4° C. overnight; and resuspended with 500 μl of PBS containing 25 μg/ml propidium Iodide (PI) (Sigma, St. Louis, Mo.) and 1.25 mg/ml Rnase A (Invetrogen) and incubated at 37° C. for 30 minutes in the dark. BrDU/PI staining was done as described (Hazlehurst et al., 2000). Briefly, within various of time post-drug treatment, cells were treated with 10 μM Bromodeoxyuridine (BrDU) at 37° C. for 30 mins, fixed in 70% ethanol., denatured (2MHCl) and neutralized (0.1M sodium borate). Cell were stained with anti-BrDU FITC antibody (BD, Phamingen), then resuspended with 500 μl of PBS containing 25 μg/ml propidium Iodide (PI) (Sigma, St. Louis, Mo.) and 1.25 mg/ml Rnase A (Invetrogen) and incubated at 37° C. for 30 mins in the dark. Nuclear staining was analyzed on a FACScan flow cytometer (Becton Dickinson, San Jose, Calif.). Watson (Pragmatic) from FlowJo 4.4.4 was used for DNA content analysis.

The subject of a further assay is LR5 cells. As to the kind of experiment: Cell-cycle analysis (BrDU/PI flow cytometry). The assay is classed as cell-based, human. Particulars: 48 h post 10 μM melphalan, 2 hour treatment. As for the experimental part:
as §5

Take `CCCCS(=N)(=O)CCC(N)C(=O)O` (stereo not drawn) [buthionine sulfoximine]: the “effect on resistance to melphalan” value with LR5 cell line is listed as “partially reversed resistance to melphalan”.
Take `N[C@@H](Cc1ccc(N(CCCl)CCCl)cc1)C(=O)O` [melphalan, Melphalan]: the results for the “percent crosslinking, 8226/FN Mean (SE)” value in assay [1] (25 uM melphalan), in assay [1] (50 uM melphalan) and in [1] (100 uM melphalan) were 29.11 (0.888) %, 47.73 (2.141) % and 72.03 (2.09) %, respectively. For the same molecule, the “percent crosslinking, 8226/SUS Mean (SE)” value in assay [2] (25 uM melphalan, FIG. 3A) is listed as 20.31 (9.579) %; in assay [2] (25 uM melphalan, FIG. 3B) it was 22.40 (9.458) %; in [2] (50 uM melphalan, FIG. 3B), 46.27 (5.850) %; in [2] (100 uM melphalan, FIG. 3A) it was 67.31 (4.110) %; in assay [2] (100 uM melphalan, FIG. 3B), 70.67 (6.175) %. Moreover, the results for the “percent crosslinking, 8226/LR5 Mean (SE)” value with 8226/LR5 cell line (25 uM melphalan), with 8226/LR5 cell line (50 uM melphalan) and in the assay on 8226/LR5 cell line (100 uM melphalan) were −4.49 (16.687) %, 14.02 (8.648) % and 47.32 (9.121) %, respectively. In addition, the “mean percent apoptosis of plasma cells” value amounted to 27.7% in [3] (adhered to FN prior to treatment with 200 uM melphalan) and 55.6% in [3] (maintained in cell suspension, 200 uM melphalan). Moreover, the “removal of ICL” value in the assay with 8226 cells [4] is listed as “no significant removal of ICL”. This molecule also yielded an ICL removed in the assay with 8226/LR5 cells of 40%. Besides, the results for the cell cycle effect entry with 8226 cells [5] and with LR5 cells were “arrested in G2/M phase” and “continue cell cycle progression”, respectively.
